Reference: patent US20140017157A1, “ANTITUMOR AGENT COMPRISING CARBON DIOXIDE AS AN ACTIVE INGREDIENT” (NEOCHEMIR INC., priority 2011, published 2014)

Experiments:
MFH cell line NaraH [1] = assay: Antitumor effects (1) against the implanted tumors in nude mice (Example 1); type: in vivo
Procedure: An MFH cell line NaraH, which is the cell line of a malignant soft tissue tumor, was subcutaneously implanted in the back of the 10 nude mice of 5 weeks old at 12 million cells/mouse. After the implantation, body weight and tumor volume of each nude mouse were measured. The mice were divided into two groups so that the variation in tumor volumes and body weights are reduced. That is, one is carbon dioxide absorption group and the other is control group treated in the same way as carbon dioxide absorption group but without the carbon dioxide absorption treatment. A treatment was started on the 2nd day after the implantation. After anesthetizing all groups by ether inhalation, the treatment was done according to the patent document 7, that is, an absorption aid for carbon dioxide comprising 93.77% by mass of water, 5% by mass of glycerin, 0.65% by mass of carbomer, 0.15% by mass of sodium alginate, 0.15% by mass of sodium dihydrogen phosphate, 0.18% by mass of sodium hydroxide and 0.10% by mass of methylparaben was applied 2 mm thick to the dorsal skin wherein a tumor has been implanted. […] Tumor volume was calculated by the following equation: (Maximum diameter of implanted tumor mass)×(Minimum diameter of implanted tumor mass)×(Minimum diameter of implanted tumor mass)×[…]. […]

MFH cell line NaraH [2] = assay: Antitumor effects (2) against the implanted tumors in nude mice (Example 2); type: in vivo
Procedure: An MFH cell line NaraH, which is the cell line of a malignant soft tissue tumor, was subcutaneously implanted in the back of the 12 nude mice of 5 weeks old at 12 million cells/mouse. After the implantation, body weight and tumor volume of each nude mouse were measured. The mice were divided into 2 groups so that the variation in tumor volumes and body weights are reduced. That is, one is carbon dioxide absorption group and the other is control group treated in the same way as carbon dioxide absorption group but without the carbon dioxide absorption treatment. The treatment according to Example 1 was started on the 3rd day after the implantation. The carbon dioxide absorption was done twice-weekly and the treatment was done for 14 days. The carbon dioxide absorption was done a total of 3 times. Tumor volume was calculated by the following equation: (Maximum diameter of implanted tumor mass)×(Minimum diameter of implanted tumor mass)×(Minimum diameter of implanted tumor mass)×½. The measurement of tumor volume was done on the 3rd, 7th, 10th and 14th day after the tumor implantation.

cell line NaraH [3] = assay: Antitumor effects (3) against the implanted tumors in nude mice, two regimens (Example 3); type: in vivo; details: t-test
Procedure: (§1) An MPH cell line NaraH, which is the cell line of a malignant soft tissue tumor, was subcutaneously implanted in the back of the 20 nude mice of 5 weeks old at 12 million cells/mouse. After the implantation, body weight and tumor volume were measured. The mice were divided into the following 3 groups so that the variation in tumor volumes and body weights are reduced. The treatment according to Example 1 was started on the 3rd day after the implantation (Table 1).
(§2) The treatment was done for 16 days. Tumor volume was calculated by the following equation: (Maximum diameter of implanted tumor mass)×(Minimum diameter of implanted tumor mass)×(Minimum diameter of implanted tumor mass)×½. The measurement of tumor volume was done on the 3rd, 7th, 10th, 14th and 16th day after tumor implantation.

cell line NaraH [4] = assay: Combined effects with a chemotherapeutic agent against the implanted tumors in nude mice (Example 4); type: in vivo; details: t-test; for tumor volume compared to the control group: adriamycin 6 mg/kg, CO2 twice-weekly; for Significance level for control group (tumor volume): P
Procedure: as §1, with “A cell line” for “An MPH cell line”, “of the 17 nude mice” for “of the 20 nude mice”, “tumor volume of each nude mouse were measured.” for “tumor volume were measured.”, “implantation (Table 2).” for “implantation (Table 1).”
as §2, with “9” for “16”, “7th” for “7th, 10th, 14th”, “9th” for “16th”

MDA-MB-231 = assay: Combined effects with a chemotherapeutic agent against the implanted malignant breast carcinoma in nude mice (Example 5); type: in vivo; details: t-test; for tumor volume compared to the control group: 15th day after tumor implantation (so in the source), adriamycin 4 mg/kg; for Significance level for control group (tumor volume): P, 15th day, Table 6
Procedure: (§3) MDA-MB-231, a cell line of a malignant breast carcinoma, was subcutaneously implanted in the back of the 18 nude mice of 5 weeks old at 12 million cells/mouse. On the 53rd day after the implantation, body weight and tumor volume of each nude mouse were measured. The mice were divided into the following 4 groups so that the variation in tumor volumes and body weights are reduced. The treatment was done according to Example 1 (Table 5).
The starting date of the test was defined as the 0 day and each treatment was done on the 1st, 5th, 8th, 12th and 15th day. Tumor volume was calculated by the following equation: (Maximum diameter of implanted tumor mass)×(Minimum diameter of implanted tumor mass)×(Minimum diameter of implanted tumor mass)×½. The measurement of tumor volume was done on the 8th and 15th day after tumor implantation. The measurement of body weights of the nude mice as an indication of a side effect was done on the 8th and 15th day after tumor implantation.

[5] = Body weight of tumor-bearing nude mice as an indication of a side effect (Example 5); type: in vivo; details: FIG. 12; for weight reduction as an indicator of a side effect compared to the control group: adriamycin 4 mg/kg
Procedure: as §3, with “5). […] The starting date of the test was defined as the 0 day and each treatment was done on the 1st, 5th, 8th, 12th and 15th day. Tumor volume was calculated by the following equation: (Maximum diameter of implanted tumor mass)×(Minimum diameter of implanted tumor mass)×(Minimum diameter of implanted tumor mass)×½. The measurement of tumor volume was done on the 8th and 15th day after tumor implantation. The measurement of body weights of the nude mice as an indication of a side effect was done on the 8th and 15th day after tumor implantation.” for “5).”

[6] = test system: breast carcinoma cell line MDA-MB-231; assay: Antitumor effects (4) of a single dose against the implanted tumors in nude mice (Example 7); type: in vivo; details: 3rd day after starting of the treatment; single treatment (CO2 10 minutes; adriamycin 3 mg/kg); FIG. 14
Procedure: (§4) A breast carcinoma cell line MDA-MB-231, which is […], was subcutaneously implanted in the back of the 23 nude mice of 5 weeks old at 20 million cells/mouse. On the 18th day after the implantation, body weight and tumor volume of each nude mouse were measured. The mice were divided into the following 4 groups so that the variation in tumor volumes and body weights are reduced. The treatment was done according to Example 1 (Table 8), but only once.
Tumor volume was calculated by the following equation: (Maximum diameter of implanted tumor mass)×(Minimum diameter of implanted tumor mass)×(Minimum diameter of implanted tumor mass)×½. The measurement of tumor volume was done on the 3rd day after starting of the treatment.

[7] = Body weight as an indicator of the side effect after a single dose (Example 7); type: in vivo, nude mice; details: single treatment (CO2 10 minutes; adriamycin 3 mg/kg); FIG. 15
Procedure: as §4

cell line LM-8 = assay: Effects against the implanted highly lung-metastatic tumors in nude mice (Example 8); type: in vivo
Procedure: A cell line LM-8, which is the cell line of a highly lung-metastatic tumor, was subcutaneously implanted in the back of the 11 nude mice of 5 weeks old at 1 million cells/mouse. On the 3rd day after the implantation, body weight and tumor volume of each nude mouse were measured. The mice were divided into two groups so that the variation in tumor volumes and body weights are reduced. That is, one is carbon dioxide absorption group (6 mice) and the other is control group (5 mice) treated in the same way as the carbon dioxide absorption group but without the carbon dioxide absorption treatment. The treatment according to Example 1 was started on the 3rd day after the implantation. The carbon dioxide absorption was done three times-weekly and the treatment was done for 14 days. The carbon dioxide absorption was done a total of 6 times. Tumor volume was calculated by the following equation: (Maximum diameter of implanted tumor mass)×(Minimum diameter of implanted tumor mass)×(Minimum diameter of implanted tumor mass)×½. The measurement of tumor volume was done on the 3rd, 7th, 10th, 14th, 17th and 21st day after the tumor implantation. On the 21st day after the tumor implantation, a lung of each mouse was isolated and the lung weight was measured. The cross-sections of the lung, where the metastasized tumor have been stained by hematoxylin and eosin, were chosen at random and a proportion of the stained area in the cross-section was analyzed by using an image analyzing software ImageJ to obtain the lung metastasis rate of the tumor.

[8] = 14 days treatment, twice-weekly CO2 absorption
[9] = 7th day after tumor implantation
[10] = 9th day after tumor implantation
[11] = 7th day after tumor implantation, Table 3
[12] = 9th day after tumor implantation, Table 4

O=C=O [carbon dioxide]
tumor volume compared to the control group (MFH cell line NaraH [1]; 16th day after tumor implantation, transdermal CO2 absorption 10 minutes, twice-weekly, total of 4 times, t-test, FIG. 1): statistically significantly reduced | deaths during the experiment period (MFH cell line NaraH [1]; [8]): no deaths | tumor volume compared to the control group (MFH cell line NaraH [2]; 14th day after tumor implantation, twice-weekly, total of 3 times, t-test, FIG. 2): statistically significantly reduced | deaths during experimental period (MFH cell line NaraH [2]; [8]): no deaths | tumor volume compared to the control group (cell line NaraH [3]; group of 5 times-weekly administration early in treatment (5 consecutive days from first day), FIG. 4): statistically significantly reduced | tumor volume compared to the control group (cell line NaraH [3]; group of twice-weekly administration, treatment 16 days, FIG. 3): statistically significantly reduced | tumor volume compared to the control group (cell line NaraH [4]; [9]): statistically significantly reduced | tumor volume compared to the control group (cell line NaraH [4]; [10]): statistically significantly reduced | Significance level for control group (tumor volume) (cell line NaraH [4]; [11]): P < 0.001 | Significance level for control group (tumor volume) (cell line NaraH [4]; [12]): P < 0.05 | tumor volume compared to the control group (MDA-MB-231): statistically significantly reduced | Significance level for control group (tumor volume) (MDA-MB-231): P < 0.001 | weight reduction as an indicator of a side effect compared to the control group [5]: significant weight reduction was not found | tumor volume relative to initial volume [6]: reduced to two-thirds of initial volumes | body weight reduction as an indicator of the side effect [7]: not observed | lung weights compared to the control group (cell line LM-8; 21st day after tumor implantation, CO2 three times-weekly, total of 6 times, t-test, FIG. 16): statistically significantly reduced | lung metastasis rates compared to the control group (cell line LM-8; 21st day after tumor implantation, proportion of stained area in lung cross-section, t-test, FIG. 17): statistically significantly reduced | significance level (P) of lung weight reduction compared to the control group (cell line LM-8; 21st day, t-test, FIG. 16): < 0.05 | significance level (P) of lung metastasis rate reduction compared to the control group (cell line LM-8; 21st day, t-test, FIG. 17): < 0.05 | deaths during the experiment period (cell line LM-8; CO2 three times-weekly for 14 days): no deaths | subcutaneously-implanted tumor volumes compared to the control group (cell line LM-8; CO2 three times-weekly, total of 6 times, t-test, FIG. 18): statistically significantly reduced | significance level (P) of subcutaneously-implanted tumor volume reduction compared to the control group (cell line LM-8; t-test, FIG. 18): < 0.05

COc1cccc2c1C(=O)c1c(O)c3c(c(O)c1C2=O)C[C@@](O)(C(=O)CO)C[C@@H]3O[C@H]1C[C@H](N)[C@H](O)[C@H](C)O1 [chemotherapeutic agent, adriamycin, reference compound]
tumor volume compared to the control group (cell line NaraH [4]; [9]): statistically significantly reduced | tumor volume compared to the control group (cell line NaraH [4]; [10]): statistically significantly reduced | Significance level for control group (tumor volume) (cell line NaraH [4]; [11]): P < 0.005 | Significance level for control group (tumor volume) (cell line NaraH [4]; [12]): P < 0.05 | tumor volume compared to the control group (MDA-MB-231): statistically significantly reduced | Significance level for control group (tumor volume) (MDA-MB-231): P < 0.005 | significance level (P) of weight reduction compared to the carbon dioxide-alone group [5]: < 0.05 | weight reduction compared to the carbon dioxide-alone group [5]: Significant weight reduction was found | weight reduction as an indicator of a side effect compared to the control group [5]: statistically significant | tumor volume relative to initial volume [6]: not changed | body weight reduction as an indicator of the side effect [7]: reduced
